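The compound was tested at five concentrations on cells cultured in 96-well plates, with a 48-hour exposure period. TGI marks complete inhibition of growth.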
How the values were obtained:
Assay in all cases: growth of human tumour cells (NCI), 48 h
[1] = tested on: OVCAR-8 ovarian
[2] = tested on: HT29 colon
[3] = tested on: MOLT-4 leukemia
[4] = tested on: A498 renal
[5] = tested on: TK-10 renal
[6] = tested on: SK-MEL-28 melanoma
[7] = tested on: IGROV1 ovarian
[8] = tested on: HCT-15 colon
[9] = tested on: HCC-2998 colon
[10] = tested on: SNB-75 CNS

Question: For `O=C(O)c1cnc(-n2[nH]c3c(c2=O)CCCC3)[nH]c1=O`, which TGI [1] is on record?
Answer: > 100 µM

Question: And the TGI [2]?
Answer: > 100 µM

Question: What about the TGI [3] of the same molecule?
Answer: > 100 µM

Question: What about the TGI [4] of the same molecule?
Answer: > 100 µM

Question: What about the TGI [5] of the same molecule?
Answer: > 100 µM

Question: And the TGI [6]?
Answer: > 100 µM

Question: What about the TGI [7] of the same molecule?
Answer: > 100 µM

Question: And the TGI [8]?
Answer: > 100 µM

Question: Which TGI [1] does the source give for `Cc1cccc(N2C(=O)C3c4[nH]c5ccccc5c4C4CCC(C(C)(C)C)CC4C3C2=O)c1` (stereo not given) here?
Answer: 13.3 µM

Question: And the TGI [2]?
Answer: 28.9 µM

Question: And the TGI [3]?
Answer: 21.3 µM

Question: And the TGI [4]?
Answer: 25.8 µM

Question: And the TGI [5]?
Answer: 27.2 µM

Question: And the TGI [6]?
Answer: 31.4 µM

Question: What about the TGI [7] of the same molecule?
Answer: 16.4 µM

Question: And the TGI [8]?
Answer: > 100 µM

Question: With `C/C=C1\CN(C(=O)OC(C)(C)C)C1C(=O)OC(C)(C)C` (stereo not given) as the molecule, how does the TGI [1] read?
Answer: > 100 µM

Question: And the TGI [2]?
Answer: > 100 µM

Question: And the TGI [3]?
Answer: > 100 µM

Question: And the TGI [9]?
Answer: > 100 µM

Question: And the TGI [4]?
Answer: > 100 µM

Question: What about the TGI [5] of the same molecule?
Answer: > 100 µM

Question: And the TGI [6]?
Answer: > 100 µM

Question: And the TGI [7]?
Answer: > 100 µM

Question: What about the TGI [8] of the same molecule?
Answer: > 100 µM

Question: What does the source list for `O=C1/C=C(/c2ccc(O)cc2)[C@@H](O)Cc2ccc(O)cc2O1`?
Answer: TGI [1]: > 100 µM; TGI [2]: > 100 µM; TGI [4]: 86.4 µM; TGI [5]: > 100 µM; TGI [7]: > 100 µM; TGI [8]: > 100 µM

Question: For `O=C(/C=C(\S/C=C(/c1ccccc1)N1CCn2c(C(=O)c3ccccc3)c(C(=O)c3ccccc3)c(C(=O)c3ccccc3)c21)C(=O)c1ccccc1)c1ccccc1`, which TGI [1] is on record?
Answer: > 10 µM

Question: What about the TGI [2] of the same molecule?
Answer: > 10 µM

Question: What about the TGI [3] of the same molecule?
Answer: > 10 µM

Question: What about the TGI [9] of the same molecule?
Answer: > 10 µM

Question: And the TGI [5]?
Answer: > 10 µM

Question: What about the TGI [10] of the same molecule?
Answer: > 10 µM

Question: And the TGI [6]?
Answer: > 10 µM

Question: And the TGI [7]?
Answer: > 10 µM

Question: What about the TGI [8] of the same molecule?
Answer: > 10 µM

Question: What does the source list for `CCOC(=O)C(Cc1ccc(OC(=O)OC(C)(C)C)cc1)NC(=O)OC(C)(C)C` (stereo not given)?
Answer: TGI [1]: > 100 µM; TGI [2]: > 100 µM; TGI [3]: 56.7 µM; TGI [9]: 76.6 µM; TGI [5]: > 100 µM; TGI [10]: 62.6 µM; TGI [6]: > 100 µM; TGI [7]: > 100 µM; TGI [8]: > 100 µM

Question: How did the TGI [2] turn out when `NNC(=S)NCCNC(=S)NN` was run?
Answer: > 100 µM

Question: What about the TGI [3] of the same molecule?
Answer: > 100 µM

Question: And the TGI [9]?
Answer: > 100 µM

Question: What about the TGI [10] of the same molecule?
Answer: > 100 µM

Question: What about the TGI [6] of the same molecule?
Answer: > 100 µM

Question: What about the TGI [7] of the same molecule?
Answer: > 100 µM

Question: For `O=C(CSc1nc(-c2ccccc2)c(-c2ccccc2)[nH]1)N/N=C/c1ccc(O)cc1`, which TGI [1] is on record?
Answer: 48 µM

Question: And the TGI [2]?
Answer: 37.1 µM

Question: What about the TGI [3] of the same molecule?
Answer: 70.1 µM

Question: And the TGI [9]?
Answer: 61.1 µM

Question: And the TGI [5]?
Answer: 72.3 µM

Question: What about the TGI [10] of the same molecule?
Answer: 52.7 µM

Question: And the TGI [6]?
Answer: > 100 µM

Question: And the TGI [7]?
Answer: 95.7 µM

Question: For `O=c1ccn(C2OC(CO)C(O)C2F)c(=O)n1Cc1ccccc1` (stereo not given), which TGI [1] is on record?
Answer: > 100 µM

Question: What about the TGI [2] of the same molecule?
Answer: > 100 µM

Question: What about the TGI [3] of the same molecule?
Answer: > 100 µM

Question: And the TGI [5]?
Answer: > 100 µM

Question: And the TGI [10]?
Answer: > 100 µM

Question: And the TGI [6]?
Answer: > 100 µM

Question: What about the TGI [7] of the same molecule?
Answer: > 100 µM

Question: What about the TGI [8] of the same molecule?
Answer: > 100 µM

Question: `NC1=NS(=O)(=O)Nc2nc(-c3ccccc3)[nH]c21` was tested. Which TGI [1] did it give?
Answer: > 100 µM

Question: What about the TGI [2] of the same molecule?
Answer: > 100 µM

Question: And the TGI [3]?
Answer: > 100 µM

Question: And the TGI [9]?
Answer: > 100 µM

Question: What about the TGI [5] of the same molecule?
Answer: > 100 µM

Question: And the TGI [10]?
Answer: > 100 µM

Question: And the TGI [6]?
Answer: > 100 µM

Question: What about the TGI [7] of the same molecule?
Answer: > 100 µM

Question: And the TGI [8]?
Answer: > 100 µM
